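Dose response: 5 concentrations. Exposure: 48 h. Format: 96-well plates. Endpoint: linear interpolation; highest concentration if not reached. Abbreviation: GI50, concentration required for 50% inhibition of growth. TGI denotes the concentration required for complete inhibition of growth.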
Columns and labels:
Assay in all cases: NCI-60 cell line screen, 48 h
KM12 colon = system: KM12 colon
PC-3 prostate = system: PC-3 prostate
HCT-15 colon = system: HCT-15 colon
NCI-H460 lung = system: NCI-H460 lung
UACC-62 melanoma = system: UACC-62 melanoma
786-0 renal = system: 786-0 renal
SK-OV-3 ovarian = system: SK-OV-3 ovarian
HOP-62 NSCLC = system: HOP-62 NSCLC
NCI-H23 lung = system: NCI-H23 lung
IGROV1 ovarian = system: IGROV1 ovarian
OVCAR-4 ovarian = system: OVCAR-4 ovarian
RPMI-8226 leukemia = system: RPMI-8226 leukemia
K-562 leukemia = system: K-562 leukemia
A498 renal = system: A498 renal
SF-539 CNS = system: SF-539 CNS
SN12C renal = system: SN12C renal
SF-268 CNS = system: SF-268 CNS
SNB-75 CNS = system: SNB-75 CNS
SW-620 colon = system: SW-620 colon
A549 NSCLC = system: A549 NSCLC
UO-31 renal = system: UO-31 renal
HS 578T breast = system: HS 578T breast
UACC-257 melanoma = system: UACC-257 melanoma
M14 melanoma = system: M14 melanoma
OVCAR-3 ovarian = system: OVCAR-3 ovarian
HT29 colon = system: HT29 colon
MOLT-4 leukemia = system: MOLT-4 leukemia
SK-MEL-2 melanoma = system: SK-MEL-2 melanoma
SNB-19 CNS = system: SNB-19 CNS
HCT-116 colon = system: HCT-116 colon
TK-10 renal = system: TK-10 renal
EKVX NSCLC = system: EKVX NSCLC
OVCAR-5 ovarian = system: OVCAR-5 ovarian
T-47D breast = system: T-47D breast
NCI-H226 lung = system: NCI-H226 lung
CCRF-CEM leukemia = system: CCRF-CEM leukemia
COLO 205 colon = system: COLO 205 colon
NCI-H522 lung = system: NCI-H522 lung
SK-MEL-5 melanoma = system: SK-MEL-5 melanoma
U251 CNS = system: U251 CNS
MCF7 breast = system: MCF7 breast
DU-145 prostate = system: DU-145 prostate
BT-549 breast = system: BT-549 breast
MDA-MB-231 breast = system: MDA-MB-231 breast
CAKI-1 renal = system: CAKI-1 renal
SF-295 CNS = system: SF-295 CNS
ACHN renal = system: ACHN renal
LOX IMVI melanoma = system: LOX IMVI melanoma
SR leukemia = system: SR leukemia
MDA-MB-435 = system: MDA-MB-435
HL-60(TB) leukemia = system: HL-60(TB) leukemia
HCC-2998 colon = system: HCC-2998 colon
RXF 393 renal = system: RXF 393 renal
OVCAR-8 ovarian = system: OVCAR-8 ovarian
MDA-MB-468 breast = system: MDA-MB-468 breast
HOP-92 NSCLC = system: HOP-92 NSCLC
NCI/ADR-RES ovarian = system: NCI/ADR-RES ovarian
MALME-3M melanoma = system: MALME-3M melanoma
SK-MEL-28 melanoma = system: SK-MEL-28 melanoma

Cc1cc(N=C2NC(=O)/C(=C/c3cc(C(C)(C)C)c(O)c(C(C)(C)C)c3)S2)n[nH]1
GI50 (KM12 colon): 4.28 µM
TGI (KM12 colon): 18 µM
GI50 (PC-3 prostate): 1.78 µM
TGI (PC-3 prostate): 22.3 µM
GI50 (HCT-15 colon): 1.5 µM
TGI (HCT-15 colon): 13.2 µM
GI50 (NCI-H460 lung): 0.755 µM
TGI (NCI-H460 lung): 10.5 µM
GI50 (UACC-62 melanoma): 3.58 µM
TGI (UACC-62 melanoma): 15.3 µM
GI50 (786-0 renal): 3.81 µM
TGI (786-0 renal): 15.7 µM
GI50 (SK-OV-3 ovarian): 5.58 µM
TGI (SK-OV-3 ovarian): 21.1 µM
GI50 (HOP-62 NSCLC): 3.67 µM
TGI (HOP-62 NSCLC): 21.1 µM
GI50 (NCI-H23 lung): 2.45 µM
TGI (NCI-H23 lung): 13.3 µM
GI50 (IGROV1 ovarian): 2.47 µM
TGI (IGROV1 ovarian): 16.8 µM
GI50 (OVCAR-4 ovarian): 3.09 µM
TGI (OVCAR-4 ovarian): 17.7 µM
GI50 (RPMI-8226 leukemia): 2.43 µM
TGI (RPMI-8226 leukemia): 13.3 µM
GI50 (K-562 leukemia): 2.47 µM
TGI (K-562 leukemia): > 100 µM
GI50 (A498 renal): 1.49 µM
TGI (A498 renal): 11.1 µM
GI50 (SF-539 CNS): 4.6 µM
TGI (SF-539 CNS): 16.4 µM
GI50 (SN12C renal): 2.7 µM
TGI (SN12C renal): 14.8 µM
GI50 (SF-268 CNS): 4.69 µM
TGI (SF-268 CNS): 24.2 µM
GI50 (SNB-75 CNS): 4.6 µM
TGI (SNB-75 CNS): 20.1 µM
GI50 (SW-620 colon): 3.71 µM
TGI (SW-620 colon): 14.2 µM
GI50 (A549 NSCLC): 2.61 µM
TGI (A549 NSCLC): 18.3 µM
GI50 (UO-31 renal): 2.1 µM
TGI (UO-31 renal): 14.5 µM
GI50 (HS 578T breast): 1.98 µM
TGI (HS 578T breast): 13.2 µM
GI50 (UACC-257 melanoma): 4.63 µM
TGI (UACC-257 melanoma): 19 µM
GI50 (M14 melanoma): 4.58 µM
TGI (M14 melanoma): 19.2 µM
GI50 (OVCAR-3 ovarian): 3.68 µM
TGI (OVCAR-3 ovarian): 18.1 µM
GI50 (HT29 colon): 4.79 µM
TGI (HT29 colon): 25 µM
GI50 (MOLT-4 leukemia): 2.39 µM
TGI (MOLT-4 leukemia): 14 µM
GI50 (SK-MEL-2 melanoma): 4.35 µM
TGI (SK-MEL-2 melanoma): 18.8 µM
GI50 (SNB-19 CNS): 3.26 µM
TGI (SNB-19 CNS): 15.8 µM
GI50 (HCT-116 colon): 1.88 µM
TGI (HCT-116 colon): 12.8 µM
GI50 (TK-10 renal): 6.19 µM
TGI (TK-10 renal): 23.8 µM
GI50 (EKVX NSCLC): 1.9 µM
TGI (EKVX NSCLC): 10.8 µM
GI50 (OVCAR-5 ovarian): 5.61 µM
TGI (OVCAR-5 ovarian): 19.4 µM
GI50 (T-47D breast): 2.41 µM
TGI (T-47D breast): 24.9 µM
GI50 (NCI-H226 lung): 1.89 µM
TGI (NCI-H226 lung): 15.1 µM
GI50 (CCRF-CEM leukemia): 1.9 µM
TGI (CCRF-CEM leukemia): 14.9 µM
GI50 (COLO 205 colon): 4.41 µM
TGI (COLO 205 colon): 18.9 µM
GI50 (NCI-H522 lung): 5.35 µM
TGI (NCI-H522 lung): 20.5 µM
GI50 (SK-MEL-5 melanoma): 1.63 µM
TGI (SK-MEL-5 melanoma): 3.66 µM
GI50 (U251 CNS): 2.15 µM
TGI (U251 CNS): 13.6 µM
GI50 (MCF7 breast): 1.93 µM
TGI (MCF7 breast): 12.2 µM
GI50 (DU-145 prostate): 4.87 µM
TGI (DU-145 prostate): > 100 µM
GI50 (BT-549 breast): 2.63 µM
TGI (BT-549 breast): 12.2 µM
GI50 (MDA-MB-231 breast): 5.7 µM
TGI (MDA-MB-231 breast): 20 µM
GI50 (CAKI-1 renal): 2.71 µM
TGI (CAKI-1 renal): 19.1 µM
GI50 (SF-295 CNS): 1.07 µM
TGI (SF-295 CNS): 10.8 µM
GI50 (ACHN renal): 3.25 µM
TGI (ACHN renal): 14.4 µM
GI50 (LOX IMVI melanoma): 2.29 µM
TGI (LOX IMVI melanoma): 14.5 µM
GI50 (SR leukemia): 3.33 µM
TGI (SR leukemia): 40.6 µM
GI50 (MDA-MB-435): 4.04 µM
TGI (MDA-MB-435): 16.4 µM
GI50 (HL-60(TB) leukemia): 4.27 µM
TGI (HL-60(TB) leukemia): 23.8 µM
GI50 (HCC-2998 colon): 4.22 µM
TGI (HCC-2998 colon): 16.4 µM
GI50 (RXF 393 renal): 2.19 µM
TGI (RXF 393 renal): 11.8 µM
GI50 (OVCAR-8 ovarian): 3.69 µM
TGI (OVCAR-8 ovarian): 19.6 µM
GI50 (MDA-MB-468 breast): 2.55 µM
TGI (MDA-MB-468 breast): 13.2 µM
GI50 (HOP-92 NSCLC): 1.87 µM
TGI (HOP-92 NSCLC): 14.7 µM
GI50 (NCI/ADR-RES ovarian): 1.35 µM
TGI (NCI/ADR-RES ovarian): 14.3 µM
GI50 (MALME-3M melanoma): 2.7 µM
TGI (MALME-3M melanoma): 14.2 µM
GI50 (SK-MEL-28 melanoma): 4.67 µM
TGI (SK-MEL-28 melanoma): 17.1 µM

— PubChem BioAssay (NCI)
